Measured values as given in publication PMC10720248 (Frontiers in Chemistry, 2023).

System: TLBro
Settings: pH 8.0, 37°C, 10 mM Tris-HCl, 100 mM NaCl, 10 mM CaCl2

For `N=C(N)NCCCC(NC(=O)c1ccccc1)C(=O)Nc1ccc([N+](=O)[O-])cc1` (racemic) [DL-BAρNA, N-benzoyl-L-arginine-ρ-nitroanilide], the Km was 850 µM.
